Assay results as given in patent US11358969B2, “Indole AHR inhibitors and uses thereof” (Ikena Oncology, Inc., priority 2017, dated 2022).
Values joined by “and” are separate entries in the source; they are usually repeats but may differ in a detail not shown here. Equal values may be shown once.

What was measured:
[1] = Mouse Pharmacokinetic Study (Example 1C); format: in vivo; settings: CD-1 mice, plasma
Procedure: Formulations of compounds set forth in Table 4 were administered intravenously or orally via gavage to CD-1 mice. Typically, at 0.167, 0.5, 1, 2, 4, 6, 12, and 24 hours post-dose, blood was collected and processed to plasma by centrifugation and stored at −80° C. until analysis.
Internal standard was added to each sample prior to protein precipitation with acetonitrile. The precipitates were filtered through a Phree phospholipid removal filter plate and the samples were analyzed by LC/MS/MS. A standard curve was prepared in plasma from typically from 1.0 ng/mL to 3000 ng/mL and processed in the same manner as the samples. Sample analysis was typically performed on a suitable LC/MS/MS system fitted with an analytical UPLC column and compounds eluted from the analytical column with a gradient from 30-95% 0.1% formic acid (v/v) in ACN: 0.1% formic acid (v/v) in water. Mass spectrometric detection of test compound and the internal standard was performed by MRM in positive mode. The pharmacokinetics of each compound were analyzed by Phoenix WinNonlin software (Pharsight, St. Louis, Mo.) via non-compartmental analysis.

[2] = In Vitro Mouse liver S9 Metabolic Stability Assay (Example 1D); format: in vitro ADME; settings: CD-1 mouse liver S9, 1 μM compound, 1 mg/mL S9 protein, 37° C., NADPH regenerating system, UDPGA, PAPS
Procedure: CD-1 mouse liver S9 were purchased from Corning or XenoTech LLC or BioreclamationIVT, LLC or WuXi prepared. The cells were stored at −80° C. in a freezer before use. β-Nicotinamide adenine dinucleotide phosphate (NADP), Glucose 6-phosphate (G6P), Glucose 6-phosphate dehydrogenase from yeast (G6PDH), Uridine 5′-diphophoglucuronic acid trisodium salt (UDPGA) and Adenosine 3′-phosphate 5′-phosphosulfate lithium salt hydrate (PAPS) were available commercially from Sigma.
Compounds were diluted in DMSO to make 10 mM stock solution. 5 μL of this stock solution (10 mM, DMSO) was diluted with 45 μL DMSO and 450 μL 50% Methanol/Water to make intermediate stock solution (100 μM, 45% MeOH, 10% DMSO). 50 μL of intermediate stock solution was diluted with 450 μL 100 mM phosphate buffer to make a final stock solution (10 μM, 4.5% MeOH, 1% DMSO). 10 uL of final stock solution was added to 90 uL liver S9 system (final concentration of 1 μM, 0.45% MeOH, 0.1% DMSO).
Test compounds were incubated at 37° C. with liver S9 (pooled from multiple donors) at 1 μM in the presence of a NADPH regenerating system, UDPGA, and PAPS at 1 mg/mL S9 protein. Time samples (0 and 60 minutes) were removed and immediately mixed with cold acetonitrile containing internal standard (IS). Samples were analyzed by LC/MS/MS and disappearance of test compounds were assessed based on peak area ratios of analyte /IS (no standard curve). All samples were injected and analyzed using LC-MS/MS. The analyte/internal standard peak area ratios were converted to percentage remaining (% Remaining) with the following equation: % Remaining at 60 min=(Peak area ratio of analyte to IS at 60 min/Peak area ratio of analyte to IS at t=0)×100%. Table 5. Mouse Stability Data According to Example 1D.

[3] = target: T1, AHR (UniProt P35869); test: DRE-Luciferase Reporter Assay (Alternate Method) (Example 1B); format: cell-based, murine or human; settings: cell line and AHR activating ligand not specified
T1 construct: IC50
T1 sequence (P35869 1-848): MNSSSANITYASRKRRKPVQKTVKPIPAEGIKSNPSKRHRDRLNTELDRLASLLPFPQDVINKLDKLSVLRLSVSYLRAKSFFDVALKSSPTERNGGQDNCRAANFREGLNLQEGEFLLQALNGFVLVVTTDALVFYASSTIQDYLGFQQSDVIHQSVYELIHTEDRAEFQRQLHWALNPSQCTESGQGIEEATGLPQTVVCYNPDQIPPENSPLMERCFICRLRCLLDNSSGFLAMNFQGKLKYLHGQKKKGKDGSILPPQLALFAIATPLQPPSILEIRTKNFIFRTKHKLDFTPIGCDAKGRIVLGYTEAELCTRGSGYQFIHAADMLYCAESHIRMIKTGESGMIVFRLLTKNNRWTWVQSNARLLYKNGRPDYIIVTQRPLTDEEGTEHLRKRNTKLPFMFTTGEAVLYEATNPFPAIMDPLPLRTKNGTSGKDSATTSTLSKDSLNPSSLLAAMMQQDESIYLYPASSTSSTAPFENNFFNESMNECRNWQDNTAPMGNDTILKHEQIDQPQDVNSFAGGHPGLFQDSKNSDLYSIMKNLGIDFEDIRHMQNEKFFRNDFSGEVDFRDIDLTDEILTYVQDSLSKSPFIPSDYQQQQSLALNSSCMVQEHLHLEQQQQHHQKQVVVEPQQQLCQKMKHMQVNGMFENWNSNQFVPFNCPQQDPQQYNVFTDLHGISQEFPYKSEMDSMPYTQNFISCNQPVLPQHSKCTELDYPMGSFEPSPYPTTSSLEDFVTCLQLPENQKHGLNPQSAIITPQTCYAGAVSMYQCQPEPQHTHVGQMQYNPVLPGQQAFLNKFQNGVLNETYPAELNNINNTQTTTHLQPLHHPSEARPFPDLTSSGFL

[4] = mouse, po, 15 mg/kg, 3.00 mg/mL in DMSO:solutol:water = 5:10:85, solution

Compound	Mouse S9 Stability: % Remaining After 60 Minutes [2]	IC50 [3] [nM]	other results
Cc1[nH]c2c(F)cc(F)cc2c1CCNc1cc(-c2cncc(F)c2)nc2c(C(C)C)cnn12 [I-107, N-[2-(5,7-Difluoro-2-methyl-1H-indol-3-yl)ethyl]-5-(5-fluoro-3-pyridyl)-3-isopropyl-pyrazolo[1,5-a]pyrimidin-7-amine]	0%	< 500	Tlast ([1]; po, 15 mg/kg, 3.00 mg/mL in DMSO:solutol:water = 5:10:85, solution): 0 h; bioavailability [1, 4]: 0%; AUC(0-inf) ([1]; mouse, iv, 3 mg/kg): 92 ng·h/mL; AUC(0-t) ([1]; mouse, iv, 3 mg/kg): 88 ng·h/mL; clearance ([1]; mouse, iv, 3 mg/kg): 540 mL/min/kg; half-life ([1]; mouse, iv, 3 mg/kg): 2.18 h; Vd ([1]; mouse, iv, 3 mg/kg, read-out: Vdss): 43.2 L/kg; Tmax [1, 4]: 0 h
Fc1cncc(-c2nc(N[C@@H]3CCc4[nH]c5ccccc5c4C3)n3nccc3n2)c1 [I-165, (3R)—N-[2-(5-Fluoro-3-pyridyl)pyrazolo[1,5-a][1,3,5]triazin-4-yl]-2,3,4,9-tetrahydro-1H-carbazol-3-amine]	3%	< 500	
CC(C)Oc1cc(NCCc2c[nH]c3ccccc23)nc(-c2cncc(F)c2)n1 [I-21, 2-(5-Fluoro-3-pyridyl)-N-[2-(1H-indol-3-yl)ethyl]-6-isopropoxy-pyrimidin-4-amine]	26%	< 500	
Fc1cncc(-c2nc(N[C@@H]3CCc4[nH]c5ccccc5c4C3)cc(N3CCCC3)n2)c1 [I-36, (3R)—N-[2-(5-Fluoro-3-pyridyl)-6-pyrrolidin-1-yl-pyrimidin-4-yl]-2,3,4,9-tetrahydro-1H-carbazol-3-amine]	29%	> 1500	
CC(C)n1cnc2c(N[C@@H]3CCc4[nH]c5ccccc5c4C3)nc(-c3cncc(F)c3)nc21 [I-162, (3R)—N-[2-(5-Fluoro-3-pyridyl)-9-isopropyl-purin-6-yl]-2,3,4,9-tetrahydro-1H-carbazol-3-amine]	54%	< 500	
Cc1cnn2c(NCCc3c[nH]c4ccccc34)nc(-c3cncc(F)c3)nc12 [I-164, 2-(5-Fluoro-3-pyridyl)-N-[2-(1H-indol-3-yl)ethyl]-8-methyl-pyrazolo[1,5-a][1,3,5]triazin-4-amine]	0%	< 500	
CC(C)c1cnn2c(NCCc3cc[nH]c3)nc(-c3cncc(F)c3)nc12 [I-166, 2-(5-Fluoro-3-pyridyl)-8-isopropyl-N-[2-(1H-pyrrol-3-yl)ethyl]pyrazolo[1,5-a][1,3,5]triazin-4-amine]	4%	< 500	
Fc1cncc(-c2nc(NCCc3c[nH]c4ccccc34)cc(N3CCCC3)n2)c1 [I-105, 2-(5-Fluoro-3-pyridyl)-N-[2-(1H-indol-3-yl)ethyl]-6-pyrrolidin-1-yl-pyrimidin-4-amine]	8%	< 500	
Cc1cnn2c(NCCc3cc[nH]c3)cc(-c3cncc(F)c3)nc12 [I-196, 5-(5-Fluoro-3-pyridyl)-3-methyl-N-[2-(1H-pyrrol-3-yl)ethyl]pyrazolo[1,5-a]pyrimidin-7-amine]	0%	< 500	
CC(C)c1cnn2c(NCCc3c[nH]c4cccnc34)nc(-c3cncc(F)c3)nc12 [I-101, 2-(5-Fluoro-3-pyridyl)-8-isopropyl-N-[2-(1H-pyrrolo[3,2-b]pyridin-3-yl)ethyl]pyrazolo[1,5-a][1,3,5]triazin-4-amine]	1%	< 500	
CC(C)c1cnn2c(NCCc3c[nH]c4ccccc34)nc(-c3cncc(F)c3)nc12 [I-16, 2-(5-Fluoro-3-pyridyl)-N-[2-(1H-indol-3-yl)ethyl]-8-isopropyl-pyrazolo[1,5-a][1,3,5]triazin-4-amine]	2%	< 500	
CC(C)Oc1cc(-c2cncc(F)c2)nc(NCCc2c[nH]c3ccccc23)n1 [I-72, 4-(5-Fluoro-3-pyridyl)-N-[2-(1H-indol-3-yl)ethyl]-6-isopropoxy-pyrimidin-2-amine]	3%	< 500	
NC(=O)c1cnn2c(NCCc3c[nH]c4ccccc34)cc(-c3cncc(F)c3)nc12 [I-78, 5-(5-Fluoro-3-pyridyl)-7-[2-(1H-indol-3-yl)ethylamino]pyrazolo[1,5-a]pyrimidine-3-carboxamide]	1%	< 500	
CN1CCN(c2cc(NCCc3c[nH]c4ccccc34)nc(-c3cncc(F)c3)n2)CC1 [I-67, 2-(5-Fluoro-3-pyridyl)-N-[2-(1H-indol-3-yl)ethyl]-6-(4-methylpiperazin-1-yl)pyrimidin-4-amine]	5% and 1%	< 500	
Cc1[nH]c2c(F)cccc2c1CCNc1cc(-c2cncc(F)c2)nc2c(C)cnn12 [I-224, N-[2-(7-fluoro-2-methyl-1H-indol-3-yl)ethyl]-5-(5-fluoro-3-pyridyl)-3-methyl-pyrazolo[1,5-a]pyrimidin-7-amine]	0%	< 500	
CC(C)(O)c1cnn2c(NCCc3c[nH]c4ccccc34)cc(-c3cncc(F)c3)nc12 [I-177, 2-[5-(5-Fluoro-3-pyridyl)-7-[2-(1H-indol-3-yl)ethylamino]pyrazolo[1,5-a]pyrimidin-3-yl]propan-2-ol]	2%	< 500	
Cc1cnn2c(NCCc3c[nH]c4cccnc34)cc(-c3cncc(F)c3)nc12 [I-209, 5-(5-Fluoro-3-pyridyl)-3-methyl-N-[2-(1H-pyrrolo[3,2-b]pyridin-3-yl)ethyl]pyrazolo[1,5-a]pyrimidin-7-amine]	0%	500 to 1000	
CC(C)c1cnn2c(NC3Cc4ccc(O)cc4C3)cc(-c3cncc(F)c3)nc12 (stereo not shown) [I-109, 2-[[5-(5-Fluoro-3-pyridyl)-3-isopropyl-pyrazolo[1,5-a]pyrimidin-7-yl]amino]indan-5-ol]	10%	< 500	
CC(C)c1ccc2c(N[C@@H]3CCc4[nH]c5ccccc5c4C3)nc(-c3cncc(F)c3)nn12 [I-156]	28%	> 1500	
